# Results published in paper PMC8805583, “Discovery of Herbacetin as a Novel SGK1 Inhibitor to Alleviate Myocardial Hypertrophy” (Advanced Science, 2021).
# Residue numbers refer to the chain shown, from its start. “Also recorded” adds a separate entry of the source.
# Assays:
# SGK1 [1] = molecular target: T1, SGK1 (Homo sapiens, UniProt O00141); test: Mass spectrometry-based SGK1 kinase inhibitory assay (LC/MS of phosphorylated […]); format: biochemical; settings: MS-based kinase inhibitory assay
# T1 sequence (O00141 1-431): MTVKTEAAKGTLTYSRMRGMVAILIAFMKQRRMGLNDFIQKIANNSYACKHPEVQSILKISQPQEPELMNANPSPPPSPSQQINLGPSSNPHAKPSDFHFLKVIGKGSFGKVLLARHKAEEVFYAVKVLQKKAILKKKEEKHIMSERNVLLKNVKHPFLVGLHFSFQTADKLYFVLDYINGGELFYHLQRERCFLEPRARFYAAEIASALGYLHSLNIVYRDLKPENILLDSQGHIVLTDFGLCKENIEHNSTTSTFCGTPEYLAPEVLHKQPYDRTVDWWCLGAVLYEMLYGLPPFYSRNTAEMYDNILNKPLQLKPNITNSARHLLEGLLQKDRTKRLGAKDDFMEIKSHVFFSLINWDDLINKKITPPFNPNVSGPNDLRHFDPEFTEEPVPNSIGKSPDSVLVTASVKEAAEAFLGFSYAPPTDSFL
# Excerpt: (§1) To identify active compounds with SGK1 inhibitory activity from Ext.R, a novel mass‐spectrometry based kinase inhibitory assay was developed. A polypeptide sequence ([…], m/z: 618.6) derived from glycogen Synthase Kinase‐3(GSK3), a known substrate of SGK1, was optimized and synthesized. We subsequently used liquid chromatography coupled with mass spectrometry (LC/MS) to detect and quantify its phosphorylation level ([…](p)FAE, m/z:658.7) (Figure 3A).^[ [26] ^] Basal level SGK1 was supplemented to each well, and the peak area of phosphorylation was measured in the presence or absence of testing compounds. […] After investigating the major chemical constituents in Ext.R (Table S3, Supporting Information), a set of compounds in Ext.R were subsequently screened for their impacts on SGK1 activity. […] The direct interaction between HBT and SGK1 was further verified by temperature‐ and dose‐dependent cellular thermal shift assays (Figure 3E,F). We further performed a direct binding assay of HBT to SGK1 by KINOMEscan assay (Eurofins Discovery).
# Synthesis of […] was prepared by Shanghai Sangong Biotech. In order to ensure the phosphorylation reaction of SGK1, SGK1 (0.25 µg mL^−1) was added to kinase buffer (25 mmol Tris [pH 7.5], 5 mmol β‐glycerolphosphate, 2 mmol DTT, 10 mmol MgCl2) with the substrate peptide […] (25 µmol) and ATP (200 µmol) and incubated for 1 h at 30 °C in the presence or absence of inhibitors. A concentration‐dependent assay for SGK1 at different concentrations (0.05, 0.1, 0.2, 0.25, and 0.3 µg mL^−1) was performed. Reactions were terminated by the addition of methyl alcohol with 0.1% trifluoroacetic acid (TFA), and supernatants were analyzed by the Agilent 1100 LC system (Agilent Technologies, USA) and a 1946D single quadrupole mass spectrometer. The acquisition parameters for LC/MS were set for positive ionization mode and selected ion monitoring (SIM) m/z values of 618.6 and 658.7 for the substrate peptide and product peptide respectively. Chromatographic separation was performed by a reversed‐phase ZORBAX SB‐C18 analytical column. The mobile phase included water containing 0.1% v/v TFA (A) and acetonitrile containing 0.1% v/v TFA (B). The flow rate was 0.6 mL min^−1. A gradient program was carried out according to the following profile: 0 min, 13% B; 15 min, 28% B; 16 min, 100% B. The constituents of Ext.R were screened by the assay to evaluate their inhibitory effects on SGK1 activity. A minimum of three replicates of each sample were analyzed and averaged together. Inhibition of SGK1 was calculated by the following equation (1) Inhibitionrate%=PC−PS/PC P C and P S represented the peak area of product peptide in the control group without test compounds and the tested sample group with various test compounds, respectively.
# SGK1 [2] = molecular target: T1, SGK1; test: KINOMEscan direct binding assay (Eurofins Discovery)
# Excerpt: as §1
# The initial crystal structures of SGK1 (PDB entry: 3HDN, 3HDM, and 2R5T) were obtained from the Protein Data Bank (PDB). The prepared inhibitors were then docked by Glide with the extra precision (XP) scoring mode to estimate the binding affinity for each protein–ligand complex. The detailed process of docking has been described previously.^[ [46] ^] […]
# SGK1 [3] = molecular target: T1, SGK1; test: Cellular thermal shift assay in cell lysates; format: binding
# Excerpt: as §1
# Figure 3 Mass spectrometry‐based kinase inhibitory assay for screening SGK1 inhibitor. A) Illustration of the mass spectrometry‐based assay for screening SGK1 inhibitors. […] G) Direct binding assay of HBT to SGK1 by KINOMEscan assay (Eurofins Discovery).
# [4] = molecular target: T2, SGK1 protein with the D177A mutation (Homo sapiens, UniProt O00141, D177A); test: MS-based kinase inhibitory assay with FLAG-tagged mutated SGK1 immunoprecipitated from HEK293T; format: biochemical; settings: normalized to WT SGK1
# T2 construct: host or cells: HEK293T
# T2 sequence (O00141 1-431 D177A): T1 sequence (O00141 1-431) with D177A
# Excerpt: To further elaborate the interaction between SGK1 and HBT, the SGK1‐HBT complex was constructed by molecular docking based on the SGK1 crystal structures retrieved from the Protein Data Bank (PDB). […] To explore the impacts of these three residues on the SGK1‐HBT binding, plasmids carrying respective SGK1 mutations (D177A, N227A, and T239A) were designed and transfected in the human embryonic kidney cells (HEK293T). The FLAG‐tagged wild‐type or mutated SGK1 protein lysates were collected by immunoprecipitation and examined for enzymatic activity in the presence of HBT using MS‐based kinase inhibitory assay.
# The initial crystal structures of SGK1 (PDB entry: 3HDN, 3HDM, and 2R5T) were obtained from the Protein Data Bank (PDB). The prepared inhibitors were then docked by Glide with the extra precision (XP) scoring mode to estimate the binding affinity for each protein–ligand complex. The detailed process of docking has been described previously.^[ [46] ^] HEK293T cells were transfected with SGK1 mutant plasmids. After 24 h, cells were lysed and immunoprecipitated with anti‐FLAG antibody and beads. Immune complexes were washed with kinase buffer and incubated in kinase buffer with substrate peptide for 1 h at 30 ℃ followed by LC/MS measurement as described above. KINOMEscan Profiling Service and KinaseProfiler Service Assay were provided by Eurofins Discovery.
structure (smiles),measurement,setting,value
"O=c1c(O)c(-c2ccc(O)cc2)oc2c(O)c(O)cc(O)c12 [HBT, herbacetin]",IC50,SGK1 [1],752 nM
same,Kd,"SGK1 [2]; KINOMEscan, read-out: binding constants (Kds) for SGK1",840 nM
same,Kd fold lower than EMD638683,SGK1 [2]; same KINOMEscan assay,14 fold
same,"thermal stability of SGK1, concentration-dependent cellular thermal shift assay",SGK1 [3]; 65 °C,increases the thermal stability of SGK1
same,"thermal stability of SGK1, temperature-dependent cellular thermal shift assay",SGK1 [3]; HBT 100 µmol,increases the thermal stability of SGK1
same,inhibition of D177A-mutated SGK1 by HBT,[4],completely ablates; also recorded: almost completely lost its response
